For this experiment, the target named is T1, human capsaicin receptor (Homo sapiens, UniProt Q8NER1).
T1 construct: transfected with the pBK-CMV expression construct encoding the full length human capsaicin receptor; expressed in transfected cells
The experiment in a line: Calcium mobilization assay (determination of agonist activity), Example 7. The format is cell-based. The settings on record: for EC50: HEK293 cells expressing human capsaicin receptor, FLUO-3 calcium fluorescence, read-out: EC50, capsaicin receptor agonist activity as described in Example 7. The text has this: A cDNA encoding full length human capsaicin receptor (SEQ ID NO:1, 2 or 3 of U.S. Pat. No. 6,482,611) was subcloned in the plasmid pBK-CMV (Stratagene, La Jolla, Calif.) for recombinant expression in mammalian cells.
Human embryonic kidney (HEK293) cells were transfected with the pBK-CMV expression construct encoding the full length human capsaicin receptor using standard methods. […] Independent clones were isolated from this pool by limiting dilution to obtain clonal stable cell lines for use in subsequent experiments.
The culture medium is emptied from the 96 well plates and FLUO-3 AM calcium sensitive dye (Molecular Probes, Eugene, Oreg.) is added to each well (dye solution: 1 mg FLUO-3 AM, 440 μL DMSO and 440 μl 20% pluronic acid in DMSO, diluted 1:250 in Krebs-Ringer HEPES (KRH) buffer (25 mM HEPES, 5 mM KCl, 0.96 mM NaH2PO4, 1 mM MgSO4, 2 mM CaCl2, 5 mM glucose, 1 mM probenecid, pH 7.4), 50 μl diluted solution per well). Plates are covered with aluminum foil and incubated at 37° C. for 1-2 hours in an environment containing 5% CO2.
To measure the ability of a test compound to agonize or antagonize a calcium mobilization response in cells expressing capsaicin receptors to capsaicin or other vanilloid agonist, the EC50 of the agonist capsaicin is first determined. An additional 20 μl of KRH buffer and 1 μl DMSO is added to each well of cells, prepared as described above. 100 μl capsaicin in KRH buffer is automatically transferred by the FLIPR instrument to each well. Capsaicin-induced calcium mobilization is monitored using either FLUOROSKAN ASCENT (Labsystems; Franklin, Mass.) or FLIPR (fluorometric imaging plate reader system; Molecular Devices, Sunnyvale, Calif.) instruments. Data obtained between 30 and 60 seconds after agonist application are used to generate an 8-point concentration response curve, with final capsaicin concentrations of 1 nM to 3 μM. […] software (Synergy Software, Reading, Pa.) is used to fit the data to the equation: y=a*(1/(1+(b/x)c)) to determine the 50% excitatory concentration (EC50) for the response. In this equation, y is the maximum fluorescence signal, x is the concentration of the agonist or antagonist (in this case, capsaicin), a is the Emax, b corresponds to the EC50 value and c is the Hill coefficient. Determination of Agonist Activity
Test compounds are dissolved in DMSO, diluted in KRH buffer, and immediately added to cells prepared as described above. […] The final concentration of test compounds in the assay wells is between 0.1 nM and 5 μM.
The ability of a test compound to act as an agonist of the capsaicin receptor is determined by measuring the fluorescence response of cells expressing capsaicin receptors elicited by the compound as function of compound concentration.
In general terms: A change in cytosolic calcium serves as a functional read-out for many receptors and channels.

T1 sequence (Q8NER1 whole entry): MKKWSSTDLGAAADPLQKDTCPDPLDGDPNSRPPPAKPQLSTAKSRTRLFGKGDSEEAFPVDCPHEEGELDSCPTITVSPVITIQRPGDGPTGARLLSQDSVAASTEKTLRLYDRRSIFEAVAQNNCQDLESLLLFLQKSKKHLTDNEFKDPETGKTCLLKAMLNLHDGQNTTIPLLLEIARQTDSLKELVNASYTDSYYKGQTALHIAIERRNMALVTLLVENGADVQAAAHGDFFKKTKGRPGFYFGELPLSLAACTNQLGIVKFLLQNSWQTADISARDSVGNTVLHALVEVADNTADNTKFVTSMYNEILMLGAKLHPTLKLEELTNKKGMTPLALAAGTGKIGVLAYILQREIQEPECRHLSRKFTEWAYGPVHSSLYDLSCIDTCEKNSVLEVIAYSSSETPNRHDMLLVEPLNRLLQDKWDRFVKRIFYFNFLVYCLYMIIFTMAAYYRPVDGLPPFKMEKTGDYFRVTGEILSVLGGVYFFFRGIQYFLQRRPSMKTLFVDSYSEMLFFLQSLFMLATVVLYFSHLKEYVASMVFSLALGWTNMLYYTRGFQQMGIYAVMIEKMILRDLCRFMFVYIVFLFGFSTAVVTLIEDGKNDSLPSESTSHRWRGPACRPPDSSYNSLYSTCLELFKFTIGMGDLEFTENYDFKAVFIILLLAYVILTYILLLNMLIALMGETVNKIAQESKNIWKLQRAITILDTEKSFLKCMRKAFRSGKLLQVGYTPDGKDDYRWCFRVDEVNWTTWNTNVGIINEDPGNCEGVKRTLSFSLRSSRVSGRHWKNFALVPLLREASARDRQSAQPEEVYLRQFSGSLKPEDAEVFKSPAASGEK

A word on the EC50: it is the concentration needed to bring the measured effect to its halfway point. For the molecule `FC(F)(F)c1ccc(Nc2ncnc3cc(Br)ccc23)nc1` [Compound 1, (7-bromo-quinazolin-4-yl)-(5-trifluoromethyl-pyridin-2-yl)-amine], the EC50 is less than 1000 nM.
Regarding `CC(C)(C)c1cc(Nc2ncnc3cc(Br)cnc23)no1` [Compound 2], the EC50 is less than 1000 nM.
The same measure, in the same setting: to `C[C@@H]1CN(Cc2nc(Nc3ccc(C(C)(C)C)cc3)c3ccc(C(F)(F)F)cc3n2)C[C@H](C)O1` [Compound 3, (4-t-butyl-phenyl)-[2-(cis-2,6-dimethyl-morpholin-4-ylmethyl)-7-trifluoromethyl-quinazolin-4-yl)-amine] belongs less than 1000 nM.
On the same count and under the same terms, then `CCCn1c(CN(Cc2ccc(Cl)cc2Cl)Cc2c(OCC)ccc3ccccc23)nc2cc(F)ccc21` [Compound 55], with less than 1000 nM.
On the same count and under the same terms, to `O=C(NCc1ccccc1)c1cc(-c2cccc(Cl)c2)nc2ccncc12` [Compound 65, 2-(3-chloro-phenyl)-[1, 6]-naphthyridine-4-carboxylic acid benzylamide] belongs less than 1000 nM.
On to `COc1cc(CNC(=O)CCCC/C=C/C(C)C)ccc1O` [capsaicin], for which, where the note is “capsaicin positive control, calcium mobilization, read-out: approximate EC90 concentration”, the EC90 is approximately 100 nM.

Source of the values: US20060194805A1, “Capsaicin receptor agonists” (Neurogen Corporation, priority 2003, published 2006).
